Experimental data from patent US8580852B2, “2-oxamide inhibitors of phospholipase A2 activity and cellular arachidonate release based on dipeptides and pseudopeptides” (The Regents of the University of California, priority 2009, dated 2013).
“And” between values parts separate entries of the source, which are not always exact repeats. Equal entries are not always repeated.

Molecular target: T1, GVIA iPLA2 (Homo sapiens, UniProt O60733)
T1 sequence (O60733 1-806): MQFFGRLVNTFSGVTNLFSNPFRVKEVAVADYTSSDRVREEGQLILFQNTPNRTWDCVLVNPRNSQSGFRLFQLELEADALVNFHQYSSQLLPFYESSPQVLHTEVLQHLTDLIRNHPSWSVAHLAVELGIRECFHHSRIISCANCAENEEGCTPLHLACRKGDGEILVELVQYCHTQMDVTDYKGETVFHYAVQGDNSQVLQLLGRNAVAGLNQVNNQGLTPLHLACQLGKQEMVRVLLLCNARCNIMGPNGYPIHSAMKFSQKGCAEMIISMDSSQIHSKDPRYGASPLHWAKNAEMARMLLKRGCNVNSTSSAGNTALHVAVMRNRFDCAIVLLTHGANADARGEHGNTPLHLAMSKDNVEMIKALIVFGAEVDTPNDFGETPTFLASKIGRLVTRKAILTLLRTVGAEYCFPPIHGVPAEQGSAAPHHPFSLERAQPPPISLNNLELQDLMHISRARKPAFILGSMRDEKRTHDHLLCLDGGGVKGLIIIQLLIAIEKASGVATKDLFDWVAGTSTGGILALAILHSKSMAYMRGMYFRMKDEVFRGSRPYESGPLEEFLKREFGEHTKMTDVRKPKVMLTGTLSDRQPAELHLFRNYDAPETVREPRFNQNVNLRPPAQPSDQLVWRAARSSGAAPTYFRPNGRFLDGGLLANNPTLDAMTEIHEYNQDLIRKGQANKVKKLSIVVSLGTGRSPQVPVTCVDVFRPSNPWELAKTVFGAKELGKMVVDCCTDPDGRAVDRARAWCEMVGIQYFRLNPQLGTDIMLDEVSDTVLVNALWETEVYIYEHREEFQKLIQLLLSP
Assay: In vitro PLA2 mixed micellar assay (modified Dole assay), GVIA iPLA2
Format: biochemical
Conditions: at 0.091 mole fraction of inhibitor, n = 3
Description: FIG. 3 illustrates the dose-response curves for 2-oxoamide inhibitors of GVIA iPLA2. Inhibition of the activity of human GVIA iPLA2 by inhibitors (a) 8a and (b) 13 was tested on mixed-micelles containing 100 μM PAPC and 400 μM Triton X-100. Inhibition curves were generated by Graphpad Prism using a non-linear regression (one-site binding model—hyperbola) to calculate the reported XI(50) values.
All the inhibitors synthesized in this work were tested for inhibition of GIVA cPLA2, GVIA iPLA2 and GV sPLA2 using mixed micellar assays. Details for the assays have been published previously. The results of the inhibition are presented in Table 1 using either percent inhibition or XI(50) values. Initially, the percent inhibition of each PLA2 at 0.091 mole fraction of inhibitor was determined. XI(50) values were estimated when the percent inhibition was higher than 90%. The XI(50) is the mole fraction of the inhibitor in the total substrate interface required to inhibit the enzyme by 50%. Data for the reference 2-oxoamide inhibitors AX006 and AX048 are included in Table 1 for comparison.
Phospholipase A2 activity was determined using the previously described modified Dole assay with buffer and substrate conditions optimized for each enzyme as described previously: (i) GIVA cPLA2 substrate mixed-micelles were composed of 400 μM Triton X-100, 97 μM PAPC, 1.8 μM ^14C-labeled PAPC, and 3 μM PIP2 in buffer containing 100 mM HEPES pH 7.5, 90 μM CaCl2, 2 mM DTT and 0.1 mg/ml BSA; (ii) GVI iPLA2 substrate mixed-micelles were composed of either (a) 400 μM Triton X-100, 99 μM DPPC, and 1.5 μM ^14C-labeled DPPC in buffer containing 200 mM HEPES pH 7.0, 1 mM ATP, 2 mM DTT and 0.1 mg/ml BSA or (b) 400 μM Triton X-100, 98.3 μM PAPC, and 1.7 μM ^14C-labeled PAPC in buffer containing 100 mM HEPES pH 7.5, 2 mM ATP and 4 mM DTT; and (iii) GV sPLA2 substrate mixed-micelles were composed of 400 μM Triton X-100, 99 μM DPPC, and 1.5 μM ^14C-labeled DPPC in buffer containing 50 mM Tris pH 8.0 and 5 mM CaCl2.
Initial screening of compounds at 0.091 mole fraction inhibitor in mixed-micelles was carried out. Compounds displaying 25% or less inhibition had no inhibitory affect (designated N.D.). The average percent inhibition (and standard error, n=3) for compounds displaying more than 25% and less than 90% enzyme inhibition is reported herein. If the percent inhibition was greater than 90%, then its XI(50) was determined by plotting percent inhibition vs. inhibitor molar fraction (7 points; typically 0.005 to 0.091 mole fraction). Inhibition curves were modeled in Graphpad Prism using either a linear (x, y intercept=0) or non-linear regression (one-site binding model—hyperbola, BMAX=100) to calculate the reported XI(50) and associated error values.

| Structure (SMILES) | GVIA iPLA2 % inhibition |
| --- | --- |
| CCCCCCCCCCCCCCC(=O)C(=O)N[C@H](C(=O)NCC(=O)OC)C(C)C [Compound 4b, (S)-Methyl-2-(3-methyl-2-(2-oxohexadecanamido)butanamido)-acetate] | N.D.^a (N.D. signifies compounds with less than 25% inhibition (or no detectable inhibition).) |
| CCCCCCCCCCCCCCC(=O)C(=O)N[C@@H](CCCC)C(=O)NCC(=O)O [Compound 9a, (S)-2-(2-(2-Oxohexadecanamido)hexanamido)acetic Acid] | N.D.^a (N.D. signifies compounds with less than 25% inhibition (or no detectable inhibition).) |
| CCCCCCCCCCCCCCC(=O)C(=O)N[C@H](C(=O)NCC(=O)O)C(C)C [Compound 9b, (S)-2-(3-Methyl-2-(2-oxohexadecanamido)butanamido)acetic Acid] | N.D.^a (N.D. signifies compounds with less than 25% inhibition (or no detectable inhibition).) |
| CCCCCCCCCCCCCCC(=O)C(=O)N[C@@H](CCCC)COCC(=O)OC(C)(C)C [Compound 17, (S)-tert-Butyl 2-(2-(2-oxohexadecanamido)hexyloxy)acetate] | 81% |
| CCCCCCCCCCCCCCC(=O)C(=O)N[C@@H](CCCC)COCC(=O)O [Compound 18, (S)-2-(2-(2-oxohexadecanainido)hexyloxy)acetic Acid] | N.D.^a (N.D. signifies compounds with less than 25% inhibition (or no detectable inhibition).) |

Same assay, conditions: mixed micelles; mole fraction of inhibitor in total substrate interface required to inhibit the enzyme by 50%

| Structure (SMILES) | GVIA iPLA2 X1(50) |
| --- | --- |
| CCCCCCCCCCCCCCC(=O)C(=O)N[C@@H](CCCC)C(=O)NCC(=O)OC [Compound 4a, (S)-Methyl 2-(2-(2-oxohexadecanamido)hexanamido)acetate] | 0.045 ± 0.018 mole fraction |
| CCCCCCCCCCCCCCC(=O)C(=O)N[C@@H](CCCC)C(=O)NCC(=O)OCC [Compound 4c, (S)-Ethyl 2-(2-(2-oxohexadecanamido)hexanamido)acetate] | 0.020 mole fraction and 0.020 ± 0.002 mole fraction |
| CCCCCCCCCCCCCCC(=O)C(=O)N[C@@H](CCCC)C(=O)NCC(=O)OC(C)(C)C [Compound 8a, (S)-tert-Butyl 2-(2-(2-oxohexadecanamido)hexanamido)acetate] | 0.011 mole fraction and 0.011 ± 0.001 mole fraction |
| CCCCCCCCCCCCCCC(=O)C(=O)N[C@H](C(=O)NCC(=O)OC(C)(C)C)C(C)C [Compound 8b, (S)-tert-Butyl-2-(3-methyl-2-(2-oxohexadecanamido)butanamido)-acetate] | 0.044 ± 0.025 mole fraction |
| CCCCCCCCCCCCCCC(=O)C(=O)N[C@@H](CCCC)COCC(=O)OCC [Compound 13, (S)-Ethyl 2-(2-(2-oxohexadecanamido)hexyloxy)acetate] | 0.017 mole fraction and 0.017 ± 0.002 mole fraction |
